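Results reflect a 48-hour exposure of cells in 96-well plates to compound at five concentrations. TGI: total growth inhibition.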
Experiments:
Experiment in all cases: inhibition of tumour cell growth, NCI panel, 48 h
A549 NSCLC = tested on: A549 NSCLC
SK-MEL-2 melanoma = tested on: SK-MEL-2 melanoma
NCI-H23 lung = tested on: NCI-H23 lung
SF-295 CNS = tested on: SF-295 CNS
DMS 114 small cell lung = tested on: DMS 114 small cell lung
DMS 273 small cell lung = tested on: DMS 273 small cell lung
NCI-H226 lung = tested on: NCI-H226 lung
RXF-631 renal = tested on: RXF-631 renal
UACC-257 melanoma = tested on: UACC-257 melanoma
A498 renal = tested on: A498 renal
SK-MEL-28 melanoma = tested on: SK-MEL-28 melanoma
MOLT-4 leukemia = tested on: MOLT-4 leukemia
OVCAR-4 ovarian = tested on: OVCAR-4 ovarian
OVCAR-5 ovarian = tested on: OVCAR-5 ovarian
SK-MEL-5 melanoma = tested on: SK-MEL-5 melanoma
HCT-15 colon = tested on: HCT-15 colon
SF-539 CNS = tested on: SF-539 CNS
OVCAR-8 ovarian = tested on: OVCAR-8 ovarian
UACC-62 melanoma = tested on: UACC-62 melanoma
CAKI-1 renal = tested on: CAKI-1 renal
SF-268 CNS = tested on: SF-268 CNS
RPMI-8226 leukemia = tested on: RPMI-8226 leukemia
SNB-75 CNS = tested on: SNB-75 CNS
U251 CNS = tested on: U251 CNS
HOP-92 NSCLC = tested on: HOP-92 NSCLC
MALME-3M melanoma = tested on: MALME-3M melanoma
KM12 colon = tested on: KM12 colon
786-0 renal = tested on: 786-0 renal
TK-10 renal = tested on: TK-10 renal
M19-MEL melanoma = tested on: M19-MEL melanoma
COLO 205 colon = tested on: COLO 205 colon
ACHN renal = tested on: ACHN renal
IGROV1 ovarian = tested on: IGROV1 ovarian
UO-31 renal = tested on: UO-31 renal
SW-620 colon = tested on: SW-620 colon
HOP-18 NSCLC = tested on: HOP-18 NSCLC
HCC-2998 colon = tested on: HCC-2998 colon
SK-OV-3 ovarian = tested on: SK-OV-3 ovarian
EKVX NSCLC = tested on: EKVX NSCLC
M14 melanoma = tested on: M14 melanoma
HL-60(TB) leukemia = tested on: HL-60(TB) leukemia
SR leukemia = tested on: SR leukemia
NCI-H522 lung = tested on: NCI-H522 lung
KM20L2 colon = tested on: KM20L2 colon
K-562 leukemia = tested on: K-562 leukemia
NCI-H460 lung = tested on: NCI-H460 lung
DLD-1 colon = tested on: DLD-1 colon
SNB-78 CNS = tested on: SNB-78 CNS
OVCAR-3 ovarian = tested on: OVCAR-3 ovarian
HT29 colon = tested on: HT29 colon
SN12C renal = tested on: SN12C renal
HOP-62 NSCLC = tested on: HOP-62 NSCLC
LXFL 529 NSCLC = tested on: LXFL 529 NSCLC
HCT-116 colon = tested on: HCT-116 colon
CCRF-CEM leukemia = tested on: CCRF-CEM leukemia
LOX IMVI melanoma = tested on: LOX IMVI melanoma
XF 498 CNS = tested on: XF 498 CNS
RXF 393 renal = tested on: RXF 393 renal
SNB-19 CNS = tested on: SNB-19 CNS

Measured: TGI

CSCC1CC(c2ccc(Cl)cc2)=NO1 (centres undefined)
not listed: LOX IMVI melanoma | XF 498 CNS | RXF 393 renal | SNB-19 CNS
> 100 µM: all other assays above

C=C1COC(/C=C(\C)CC/C=C(\C)CCl)C1 (centres undefined)
not listed: RXF-631 renal | UACC-257 melanoma | CAKI-1 renal | MALME-3M melanoma | HOP-18 NSCLC | SR leukemia
> 100 µM: all other assays above

CN(C)c1nc(=Nc2ccc3ccccc3c2)ss1
66.8 µM: UACC-257 melanoma
52.5 µM: RPMI-8226 leukemia
54.7 µM: HL-60(TB) leukemia
20.9 µM: MOLT-4 leukemia
73.5 µM: CCRF-CEM leukemia
23.2 µM: COLO 205 colon
65.9 µM: NCI-H522 lung
41.3 µM: DMS 114 small cell lung
75.3 µM: SR leukemia
29.9 µM: SK-MEL-5 melanoma
71.1 µM: TK-10 renal
not listed: NCI-H23 lung | SF-295 CNS | DMS 273 small cell lung | RXF-631 renal | OVCAR-5 ovarian | HOP-92 NSCLC | M19-MEL melanoma | EKVX NSCLC | HT29 colon | LOX IMVI melanoma | XF 498 CNS
> 100 µM: all other assays above

c1ccc2c(C3NCCc4[nH]cnc43)cccc2c1 (centres undefined)
not listed: RXF-631 renal | MALME-3M melanoma | EKVX NSCLC | HL-60(TB) leukemia | XF 498 CNS | SNB-19 CNS
> 100 µM: all other assays above

Source: PubChem BioAssay (NCI)
